Test results taken from PubChem BioAssay (NCI).
“And” between values parts separate entries of the source, which are not always exact repeats. Identical values can stand only once.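 Five compound concentrations were applied to cells in 96-well plates for 48 hours; endpoints were derived by simple linear interpolation of the resulting dose-response curve. GI50 is the concentration that inhibits growth by half. TGI denotes the concentration required for complete inhibition of growth.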

Columns and labels:
Test in all cases: inhibition of tumour cell growth, NCI panel, 48 h
[1] = system: EKVX NSCLC
[2] = system: CAKI-1 renal
[3] = system: SF-295 CNS
[4] = system: A549 NSCLC
[5] = system: SNB-19 CNS
[6] = system: OVCAR-3 ovarian
[7] = system: COLO 205 colon
[8] = system: SF-268 CNS
[9] = system: CCRF-CEM leukemia
[10] = system: K-562 leukemia

| SMILES | TGI [1] [µM] | TGI [2] [µM] | TGI [3] [µM] | TGI [4] [µM] | TGI [5] [µM] | TGI [6] [µM] | TGI [7] [µM] | TGI [8] [µM] | TGI [9] [µM] | TGI [10] [µM] | GI50 [1] [µM] | GI50 [2] [µM] | GI50 [3] [µM] | GI50 [4] [µM] | GI50 [5] [µM] | GI50 [6] [µM] | GI50 [7] [µM] | GI50 [8] [µM] | GI50 [9] | GI50 [10] [µM] |
| --- | --- | --- | --- | --- | --- | --- | --- | --- | --- | --- | --- | --- | --- | --- | --- | --- | --- | --- | --- | --- |
| O=C1C=Cc2noc3cccc1c23 | 10.2 | 25.4 | 32.8 | 38.7 | 31.3 | 10.9 | 34 | 12.4 | 5.35 | 9.65 | – | – | – | – | – | – | – | – | – | – |
| O=C(O)C(O)C(O)C1[O][Sb][O]C1CO (stereo not given) | > 100 | > 100 | > 100 | > 100 | > 100 | > 100 | > 100 | > 100 | > 100 | > 100 | > 100 | > 100 | > 100 | > 100 | > 100 | > 100 | > 100 | > 100 | 33.3 µM and 18.9 µM | > 100 |
| CC(C)S(=O)(=O)n1c(N)nc2ccc(/C(=N/O)c3ccccc3)cc21 | 59.1 | 76.9 | > 100 | 49.3 | > 100 | 50.6 | 33.5 | > 100 | 57.2 | > 100 | – | – | – | – | – | – | – | – | – | – |
| CN(C)/C(=N/C(=O)Nc1ccccc1)SCc1ccccc1 | > 100 | > 100 | > 100 | > 100 | > 100 | > 100 | > 100 | > 100 | > 100 | > 100 | – | – | – | – | – | – | – | – | – | – |
| CC(=O)Nc1[nH]c(=O)[nH]c(=O)c1N(C(C)=O)C(C)=O | > 100 | > 100 | > 100 | > 100 | > 100 | > 100 | > 100 | > 100 | > 100 | > 100 | – | – | – | – | – | – | – | – | – | – |
| COc1cc([N+](=O)[O-])c2ncccc2c1O | 78.1 | 30.9 | 6.77 | 1.74 | > 100 | 37.3 | 3.46 | 67.1 | > 100 | > 100 | 18.8 | 4.84 | 2.29 | 0.32 | 3.19 | 4.76 | 1.7 | 9.79 | 95.2 µM | 38.2 |
| CCCC/C(C)=N/NC(N)=S | > 100 | > 100 | > 100 | > 100 | > 100 | > 100 | > 100 | > 100 | > 100 | > 100 | – | – | – | – | – | – | – | – | – | – |
| COC(=N)/C(=C1\OC(N)=C(c2ccc(Cl)cc2)C1=O)c1ccc(Cl)cc1 | > 100 | > 100 | > 100 | > 100 | > 100 | > 100 | > 100 | > 100 | > 100 | > 100 | – | – | – | – | – | – | – | – | – | – |
| CC(=O)OCC1OC(O[C@@H]2C[C@H]3C(C)(C)[C@H](OC(C)=O)CC[C@]3(C)[C@H]3CC[C@@H]4[C@]5(CC[C@@]4(C)[C@@]32C)O[C@@H]([C@H](O)C(C)(C)O)C[C@@H]5C)C(O)C(O)C1O (stereo not given in full) | 28.5 | 13.5 | 19.2 | 18.3 | 30.5 | 20.5 | 14.3 | 23.7 | 20 | 25.1 | 9.52 | – | 6.43 | 5.1 | 12.5 | 7.05 | 4.11 | 9.34 | 3.16 µM | 4.51 |
| COc1ccc2c3c([nH]c2c1)[C@H]1C[C@H]2[C@H](C[C@@H](O)[C@H](OC)[C@H]2C(=O)O)CN1CC3 | > 100 | > 100 | > 100 | > 100 | > 100 | > 100 | > 100 | > 100 | > 100 | > 100 | – | – | – | – | – | – | – | – | – | – |
| CC12CC(=O)NN=C1c1ccccc1C2 (stereo not given) | > 100 | > 100 | > 100 | > 100 | > 100 | > 100 | > 100 | > 100 | > 100 | > 100 | – | – | – | – | – | – | – | – | – | – |
| Cc1cc(C#Cc2ccccc2)ccc1-n1c(/C=C/c2ccc(O)cc2)nc2ccccc2c1=O | > 100 | 36.5 | 13.6 | > 100 | > 100 | 25.7 | 4.75 | > 100 | > 100 | > 100 | 2.43 | 3.3 | 2.85 | 3.14 | 6.91 | 3.6 | 1.99 | 4.56 | 3.26 µM | 2 |
| CC1=CC(=O)c2[nH]c3ccccc3c2C1=O | 8.48 | > 25 | 7.93 | > 25 | > 25 | 8.02 | 7.55 | 7.89 | 10.6 | 14 | 4.04 | 14.4 | 4.32 | – | – | – | 4.12 | 4.36 | 3.33 µM | 5.56 |
| C=C1C(=O)O[C@H]2[C@H](OC(C)=O)[C@@H](C)CCC/C(C)=C/CC[C@]3(CO3)[C@H](O)C[C@@H]12 | 17.3 | 4.51 | 49.3 | 35 | 28.5 | 5.69 | 13.7 | 13.6 | 4.77 | 5.06 | 4.52 | 1.91 | 19.7 | 16.9 | 15.2 | 2.36 | 3.89 | 3.93 | 1.87 µM | 1.85 |
| C[C@@H]1CC[C@H]2C(CN3CCN(CC4=C(C(F)(F)F)O[C@@H]5O[C@@]6(C)CC[C@H]7[C@H](C)CC[C@@H]4[C@@]57OO6)CC3)=C(C(F)(F)F)O[C@@H]3O[C@@]4(C)CC[C@@H]1[C@]32OO4 | > 100 | > 33.5 | > 100 | > 100 | > 100 | > 24.9 | – | > 100 | > 100 | > 100 | 3.14 | 3.16 | 5.01 | 3.31 | 7.75 | 1.84 | 0.996 | 4.24 | 0.605 µM | 1.09 |
